# Data taken from patent US9248124B2, “Use of inhibitors of IκB kinase for the treatment of cancer” (Millennium Pharmaceuticals, Inc., priority 2001, dated 2016).
# How the values were obtained:
# Type in all cases: cell-based, human
# [1] = test system: IκBα phosphorylation and degradation in MM.1S cells; experiment: Immunoblot of IκBα phosphorylation and degradation triggered by TNFα in MM.1S cells
# Experimental: (§1) MM cells were cultured with PS-341 or compound 1; harvested; washed; and lysed using lysis buffer: 50 mM Tris-HCl (pH 7.4), 150 mM NaCl, 1% NP-40, 5 mM EDTA, 5 mM NaF, 2 mM Na3VO4, 1 mM PMSF, 5 μg/mL leupeptin, and 5 μg/mL aprotinin. For detection of phospho-IκBα, IκBα, phospho-MAPK, phospho-STAT3, ERK2 or alpha-tubulin, cell lysates were subjected SDS-PAGE, transferred to PVDF membrane (Bio-Rad Laboratories, Hercules, Calif.), and immunoblotted with anti-phospho-IκBα, -IκBα, -phospho-MAPK, or -phospho-STAT3 Abs (Cell Signaling, Beverly, Mass.), and anti-alpha-tubulin (Sigma) Abs.
# Inhibition of IκBα phosphorylation by compound 1 was assayed in MM.1S and patient MM cells triggered by TNFα. […] To study the dose-dependent effect of compound 1, MM.1S cells were pre-treated with 1.25-40 μM compound 1 for 90 min, and then stimulated by TNFα (5 ng/mL).
# The effect of Dex, compound 1, PS-341 and/or IL-6 on TNFα induced phosphorylation of IκBα in MM.1S cells was next examined. […] In contrast compound 1, in the presence or absence of IL-6, inhibits phosphorylation of IκBα. Dex inhibits TNFα-induced degradation of IκBα, whereas IL-6 blocks this effect. Both PS-341 and compound 1 inhibit degradation of IκBα, in the presence or absence of IL-6.
# [2] = test system: NF-κB activation in MM.1S cells; experiment: Electrophoretic mobility shift assay (EMSA) of NF-κB activation in MM.1S cells
# Experimental: Electrophoretic mobility shift analyses (EMSA) were carried out as in previous studies (Hideshima et al., Oncogene 20:4519 (2001); Hideshima et al., Cancer Res. 61:3071 (2001)). Briefly, MM.1S cells were pre-incubated with PS-341 (5 μM for 1 h) and compound 1 (10 μM for 90 min) before stimulation with TNFα (5 ng/mL) for 10 or 20 min. Cells were then pelleted, resuspended in 400 μL of hypotonic lysis buffer (20 mM HEPES, pH 7.9, 10 mM KCl, 1 mM EDTA, 0.2% Triton X-100, 1 mM Na3VO4, 5 mM NaF, 1 mM PMSF, 5 μg/mL leupeptin, 5 μg/mL aprotinin), and kept on ice for 20 min. After centrifugation (14000 g for 5 min) at 4° C., the nuclear pellet was extracted with 100 μL hypertonic lysis buffer (20 mM HEPES, pH 7.9, 400 mM NaCl, 1 mM EDTA, 1 mM Na3VO4, 5 mM NaF, 1 mM PMSF, 5 μg/mL leupeptin, 5 μg/mL aprotinin) on ice for 20 min. After centrifugation (14000 g for 5 min) at 4° C., the supernatant was collected as nuclear extract. […]
# Since NF-κB activation requires phosphorylation, ubiquitination, and degradation of IκBα, we next examined whether compound 1 could inhibit NF-κB activation, assessed by EMSA. […]
# [3] = test system: p42/44 MAPK phosphorylation; experiment: Immunoblot of IL-6 induced p42/44 MAPK phosphorylation in MM.1S cells; conditions: IL-6 50 ng/mL for 5 min, compound 1 10 μM 90 min, PS-341 5 μM 60 min, FIG. 5
# Experimental: as §1
# [4] = test system: IL-6 secretion in BMSCs; experiment: IL-6 secretion in BMSC cultures with or without MM.1S cells (ELISA); conditions: 0.4-10 μM, 48 h, dose dependent; FIG. 12A
# Excerpt: BM specimens were obtained from patients with MM. Mononuclear cells (MNCs) separated by Ficoll-Hipaque density sedimentation were used to established long-term BM cultures, as previously described (Uchiyama et al., Blood 82:3712-3720 (1993)). When an adherent cell monolayer had developed, cells were harvested in Hank's Buffered Saline Solution (HBSS) containing 0.25% trypsin and 0.02% EDTA, washed, and collected by centrifugation.
# To evaluate growth stimulation and signaling in MM cells adherent to BMSCs, 3×10^4 MM.1S cells were cultured in BMSC coated 96-well plates for 48 h, in the presence or absence of compound 1. DNA synthesis was measured as described above. The Duoset ELISA (R&D System) was used to measure IL-6 in supernatants of 48 h cultures of BMSCs with or without MM.1S cells, in the presence or absence of compound 1.
smiles,measurement,setting,value
"O=C(Nc1cc(Cl)cc2c1[nH]c1cnccc12)c1cccnc1 [compound 1, N-(6-chloro-9H-β-carbolin-8-yl)-nicotinamide]",TNFα-induced phosphorylation of IκBα,"[1]; Dex 1 μM 18 h, PS-341 5 μM 60 min, compound 1 10 μM 90 min, presence or absence of IL-6, TNFα 5 ng/mL 5 min, FIG. 7",inhibits
same,TNFα-induced degradation of IκBα,"[1]; Dex 1 μM 18 h, PS-341 5 μM 60 min, compound 1 10 μM 90 min, TNFα 5 ng/mL 5 min, FIG. 7",inhibit
same,phosphorylation and degradation of IκBα,"[1]; compound 1 pre-treatment 10 μM for 90 min, then TNFα 5 ng/mL, FIG. 1A",completely blocked
same,concentration at which phosphorylation of IκBα was completely inhibited,"[1]; pre-treated with 1.25-40 μM for 90 min, then TNFα 5 ng/mL, FIG. 1B",≥ 5 µM
same,"NF-κB activation triggered by TNFα (EMSA), dose dependence","[2]; compound 1 2.5-10 μM for 90 min, dose-dependent fashion, FIG. 6C",inhibits
same,NF-κB activation (EMSA),"[2]; pre-treated 10 μM for 90 min, TNFα 5 ng/mL for 0-20 min, FIG. 2",completely inhibited
same,p42/44 MAPK phosphorylation,[3],does not inhibit
same,constitutive secretion of IL-6 in BMSCs,[4],blocks
same,increased IL-6 secretion triggered by adhesion of MM.1S cells to BMSCs,[4],blocks
